From patent US10717736B2, “Pyrrole amides as alpha V integrin inhibitors” (BRISTOL-MYERS SQUIBB COMPANY, priority 2016, dated 2020)
Structures can show the parent of a compound that is named as a salt.

Columns and labels:
human αVβ6 Integrin = biological target: T1, human αVβ6 Integrin (Homo sapiens, UniProt P06756+P18564); experiment: human αVβ6 HTRF binding assay
T1 construct: purchased R & D systems 3817-AV
Method: (§1) All binding assays used the HTRF (homogeneous time resolved fluorescence) technology from Cisbio International, therefore all assays are described as HTRF binding assays. The assay results for the Examples are listed above together with the characterization data. The HTRF binding assays are established for the following integrins: human αVβ6, human αVβ1, human αVβ3, human αVβ5, and human αVβ8. All assays used the following assay buffer: 20 mM Tris, pH 7.4, 1 mM MgCl2, 1 mM MnCl2, 0.01% Tween 20, and 0.01% BSA. Alternatively, a SPA-based assay was used for evaluation of receptor binding.
(§2) The following describes the components and a representative procedure for the human αVβ6 HTRF binding assay: Recombinant human αVβ6 Integrin (R & D systems, 3817-AV) was biotinylated. Biotinylated human αVβ6 Integrin was added to assay vessel at a final concentration of 1.25 nM. FITC-conjugated fibronectin (Cytoskeleton, FNR02) was then added at the final concentration of 5 nM. The mixture was centrifuged at 600 rpm for three minutes using Thermo Fisher Heraeus Multifuge X3 centrifuge and then incubated at RT for an hour. Streptavidin Terbium (Cisbio international 610STLB) was then added at the final concentration of 0.625 nM. The resulting mixture was centrifuged at 600 rpm for three minutes using Thermo Fisher Heraeus Multifuge X3 centrifuge and then incubated at room temperature overnight in dark before reading HTRF signals.

human αVβ8 = human αVβ8 (Homo sapiens, UniProt P06756+P26012); experiment: human αVβ8 HTRF binding assay
Sequence of human αVβ8 (P06756 31-992 limits assumed): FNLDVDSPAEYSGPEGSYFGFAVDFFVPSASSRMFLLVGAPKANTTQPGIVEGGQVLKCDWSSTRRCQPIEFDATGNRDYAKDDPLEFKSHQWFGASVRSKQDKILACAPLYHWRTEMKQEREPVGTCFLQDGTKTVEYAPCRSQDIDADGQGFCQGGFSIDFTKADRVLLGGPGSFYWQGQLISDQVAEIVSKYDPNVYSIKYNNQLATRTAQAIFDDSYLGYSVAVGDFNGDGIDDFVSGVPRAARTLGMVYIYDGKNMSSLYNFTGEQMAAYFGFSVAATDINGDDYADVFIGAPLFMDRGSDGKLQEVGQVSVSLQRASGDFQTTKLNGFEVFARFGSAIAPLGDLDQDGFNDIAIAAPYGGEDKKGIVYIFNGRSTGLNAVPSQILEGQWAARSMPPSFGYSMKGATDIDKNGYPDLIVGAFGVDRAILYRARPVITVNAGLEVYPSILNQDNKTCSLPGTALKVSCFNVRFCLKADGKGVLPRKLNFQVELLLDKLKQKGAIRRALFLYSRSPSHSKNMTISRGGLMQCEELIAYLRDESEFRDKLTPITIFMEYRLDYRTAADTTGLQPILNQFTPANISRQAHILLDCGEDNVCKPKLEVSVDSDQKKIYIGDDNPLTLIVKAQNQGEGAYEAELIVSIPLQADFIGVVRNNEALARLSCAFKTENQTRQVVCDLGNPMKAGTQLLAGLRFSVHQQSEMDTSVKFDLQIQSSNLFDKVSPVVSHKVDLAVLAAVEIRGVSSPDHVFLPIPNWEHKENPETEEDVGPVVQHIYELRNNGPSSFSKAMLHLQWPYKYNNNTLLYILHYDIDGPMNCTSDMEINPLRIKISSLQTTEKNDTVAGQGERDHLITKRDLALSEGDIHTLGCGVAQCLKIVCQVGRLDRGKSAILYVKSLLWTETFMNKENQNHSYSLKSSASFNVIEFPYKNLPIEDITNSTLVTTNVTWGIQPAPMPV
Sequence of human αVβ8 (P26012 43-684 limits assumed): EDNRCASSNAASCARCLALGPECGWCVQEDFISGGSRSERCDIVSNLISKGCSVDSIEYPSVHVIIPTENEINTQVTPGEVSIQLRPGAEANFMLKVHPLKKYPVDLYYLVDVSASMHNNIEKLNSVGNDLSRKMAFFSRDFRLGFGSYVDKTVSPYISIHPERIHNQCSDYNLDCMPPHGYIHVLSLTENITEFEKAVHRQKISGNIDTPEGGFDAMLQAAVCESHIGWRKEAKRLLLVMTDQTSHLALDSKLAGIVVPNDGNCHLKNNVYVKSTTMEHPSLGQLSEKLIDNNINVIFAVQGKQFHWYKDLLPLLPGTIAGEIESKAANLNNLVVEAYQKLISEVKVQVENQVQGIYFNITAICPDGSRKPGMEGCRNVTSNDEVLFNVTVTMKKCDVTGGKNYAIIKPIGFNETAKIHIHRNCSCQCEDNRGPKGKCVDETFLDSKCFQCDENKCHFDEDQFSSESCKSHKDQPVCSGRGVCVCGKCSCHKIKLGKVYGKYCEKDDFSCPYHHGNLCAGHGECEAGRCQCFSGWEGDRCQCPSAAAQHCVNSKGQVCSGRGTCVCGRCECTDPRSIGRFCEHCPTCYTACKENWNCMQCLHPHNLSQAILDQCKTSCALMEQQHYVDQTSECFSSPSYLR
Method: as §1, §2

human αVβ3 = human αVβ3 (Homo sapiens, UniProt P05106+P06756); experiment: human αVβ3 HTRF binding assay
Sequence of human αVβ3 (P06756 31-992 limits assumed): as the sequence (P06756 31-992 limits assumed) above
Sequence of human αVβ3 (P05106 27-718 limits assumed): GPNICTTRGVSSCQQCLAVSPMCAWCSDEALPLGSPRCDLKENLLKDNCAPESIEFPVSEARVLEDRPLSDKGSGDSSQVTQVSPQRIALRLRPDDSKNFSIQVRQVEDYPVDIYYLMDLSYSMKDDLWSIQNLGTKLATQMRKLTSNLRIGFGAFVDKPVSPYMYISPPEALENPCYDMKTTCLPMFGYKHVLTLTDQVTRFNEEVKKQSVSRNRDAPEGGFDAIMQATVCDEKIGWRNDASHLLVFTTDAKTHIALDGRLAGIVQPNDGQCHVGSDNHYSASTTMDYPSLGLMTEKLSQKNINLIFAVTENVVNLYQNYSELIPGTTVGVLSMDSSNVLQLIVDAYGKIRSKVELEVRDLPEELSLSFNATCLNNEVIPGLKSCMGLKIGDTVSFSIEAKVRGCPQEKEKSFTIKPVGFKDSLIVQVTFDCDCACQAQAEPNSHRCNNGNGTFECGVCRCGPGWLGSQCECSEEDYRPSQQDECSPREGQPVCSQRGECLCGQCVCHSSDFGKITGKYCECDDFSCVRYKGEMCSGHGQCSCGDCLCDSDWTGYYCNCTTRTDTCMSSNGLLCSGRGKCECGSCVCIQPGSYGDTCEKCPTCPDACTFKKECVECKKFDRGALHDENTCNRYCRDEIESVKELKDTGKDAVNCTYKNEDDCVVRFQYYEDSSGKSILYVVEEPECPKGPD
Method: as §1, §2

human αVβ5 = human αVβ5 (Homo sapiens, UniProt P06756+P18084); experiment: human αVβ5 HTRF binding assay
Sequence of human αVβ5 (P06756 31-992 limits assumed): as the sequence (P06756 31-992 limits assumed) above
Sequence of human αVβ5 (P18084 24-719 limits assumed): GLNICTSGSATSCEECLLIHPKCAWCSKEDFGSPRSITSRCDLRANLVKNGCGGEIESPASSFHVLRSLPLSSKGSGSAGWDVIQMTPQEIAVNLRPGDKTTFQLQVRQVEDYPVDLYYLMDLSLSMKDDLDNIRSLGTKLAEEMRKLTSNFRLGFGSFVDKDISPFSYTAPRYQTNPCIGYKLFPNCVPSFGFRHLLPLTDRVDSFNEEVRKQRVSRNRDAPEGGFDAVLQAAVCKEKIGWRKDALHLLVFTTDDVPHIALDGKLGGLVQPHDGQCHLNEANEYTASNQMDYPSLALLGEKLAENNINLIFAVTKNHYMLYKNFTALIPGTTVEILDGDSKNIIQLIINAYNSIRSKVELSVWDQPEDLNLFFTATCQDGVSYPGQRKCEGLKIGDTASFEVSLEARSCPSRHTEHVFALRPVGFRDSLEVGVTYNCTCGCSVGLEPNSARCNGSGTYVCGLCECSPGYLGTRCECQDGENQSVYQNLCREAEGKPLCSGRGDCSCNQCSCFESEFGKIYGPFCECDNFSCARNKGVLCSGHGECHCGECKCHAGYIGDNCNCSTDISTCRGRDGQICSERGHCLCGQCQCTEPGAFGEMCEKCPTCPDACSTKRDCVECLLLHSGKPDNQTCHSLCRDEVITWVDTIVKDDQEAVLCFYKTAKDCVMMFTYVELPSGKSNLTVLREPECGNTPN
Method: as §1, §2

human αVβ1 = human αVβ1 (Homo sapiens, UniProt P05556+P06756); experiment: human αVβ1 HTRF binding assay
Sequence of human αVβ1 (P06756 31-992 limits assumed): as the sequence (P06756 31-992 limits assumed) above
Sequence of human αVβ1 (P05556 21-728 limits assumed): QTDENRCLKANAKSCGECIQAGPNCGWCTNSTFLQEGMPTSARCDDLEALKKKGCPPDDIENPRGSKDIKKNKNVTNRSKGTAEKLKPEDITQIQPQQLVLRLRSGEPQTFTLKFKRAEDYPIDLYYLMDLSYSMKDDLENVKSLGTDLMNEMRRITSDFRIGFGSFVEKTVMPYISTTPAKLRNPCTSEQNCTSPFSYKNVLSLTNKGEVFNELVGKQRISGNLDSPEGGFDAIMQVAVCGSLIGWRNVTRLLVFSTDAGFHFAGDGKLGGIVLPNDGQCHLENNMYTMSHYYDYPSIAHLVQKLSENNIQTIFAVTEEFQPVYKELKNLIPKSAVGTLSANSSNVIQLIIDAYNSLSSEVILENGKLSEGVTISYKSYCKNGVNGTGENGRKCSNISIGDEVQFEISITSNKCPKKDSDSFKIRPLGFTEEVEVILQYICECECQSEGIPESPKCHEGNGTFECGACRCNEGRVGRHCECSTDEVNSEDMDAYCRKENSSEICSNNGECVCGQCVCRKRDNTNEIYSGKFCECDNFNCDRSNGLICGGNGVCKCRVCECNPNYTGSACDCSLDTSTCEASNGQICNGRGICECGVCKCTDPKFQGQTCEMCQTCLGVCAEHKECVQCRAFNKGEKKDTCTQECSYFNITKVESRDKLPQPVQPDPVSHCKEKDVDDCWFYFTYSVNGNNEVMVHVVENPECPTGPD
Method: as §1, §2

T1 sequence (P06756 31-992 limits assumed): as the sequence (P06756 31-992 limits assumed) above
T1 sequence (P18564 22-707 limits assumed): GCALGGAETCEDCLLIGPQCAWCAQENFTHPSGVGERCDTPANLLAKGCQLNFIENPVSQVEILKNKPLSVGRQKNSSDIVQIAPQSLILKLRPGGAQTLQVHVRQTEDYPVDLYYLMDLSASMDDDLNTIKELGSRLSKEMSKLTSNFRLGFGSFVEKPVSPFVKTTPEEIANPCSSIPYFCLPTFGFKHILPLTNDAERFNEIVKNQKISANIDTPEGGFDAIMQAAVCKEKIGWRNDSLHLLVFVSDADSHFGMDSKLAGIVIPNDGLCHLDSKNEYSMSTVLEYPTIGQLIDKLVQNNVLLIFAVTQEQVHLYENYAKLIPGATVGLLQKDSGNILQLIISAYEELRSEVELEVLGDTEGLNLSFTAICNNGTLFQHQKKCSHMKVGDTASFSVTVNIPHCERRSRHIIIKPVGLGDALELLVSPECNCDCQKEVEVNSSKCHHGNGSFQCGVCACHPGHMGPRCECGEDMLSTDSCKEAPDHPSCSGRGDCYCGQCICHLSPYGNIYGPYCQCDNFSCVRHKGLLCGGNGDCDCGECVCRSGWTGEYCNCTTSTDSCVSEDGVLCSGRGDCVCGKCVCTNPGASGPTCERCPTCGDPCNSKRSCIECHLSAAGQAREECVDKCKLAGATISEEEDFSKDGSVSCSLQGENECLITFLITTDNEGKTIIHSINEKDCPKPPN

SMILES | IC50 (human αVβ6 Integrin) | IC50 (human αVβ8) | IC50 (human αVβ3) | IC50 (human αVβ5) | IC50 (human αVβ1)
O=C(O)C[C@H](NC(=O)c1cc(CCc2ccc3c(n2)NCCC3)c[nH]1)c1cc(Cl)cc(Cl)c1 [Example 11] | 2.03 nM |  |  |  | 
COc1ncc([C@H](CC(=O)O)NC(=O)c2cc(CCCc3ccc4c(n3)NCCC4)c[nH]2)cn1 [Example 22] | 14.5 nM |  |  |  | 
Cc1cc(C)c(S(=O)(=O)N[C@@H](CNC(=O)c2cc(CCc3ccc4c(n3)NCCC4)c[nH]2)C(=O)O)c(C)c1 [Example 23, (S)-3-(4-(2-(5,6,7,8-Tetrahydro-1,8-naphthyridin-2-yl)ethyl)-1H-pyrrole-2-carboxamido)-2-((2,4,6-trimethylphenyl)sulfonamido)propanoic Acid] | 1.02 nM | 9.06 nM | 5.36 nM | 0.54 nM | 
O=C(N[C@@H](CNC(=O)c1cc(CCc2ccc3c(n2)NCCC3)c[nH]1)C(=O)O)OC1CCCC1 [Example 26, (S)-2-(((Cyclopentyloxy)carbonyl)amino)-3-(4-(2-(5,6,7,8-tetrahydro-1,8-naphthyridin-2-yl)ethyl)-1H-pyrrole-2-carboxamido)propanoic Acid] | 0.28 nM | 8.78 nM | 1.67 nM | 0.09 nM | 
COc1ccc([C@H](CC(=O)O)NC(=O)c2cc(-c3ccc4c(n3)NCCC4)c[nH]2)cc1F [Example 19] | 81 nM |  |  |  | 
COc1ccc([C@H](CC(=O)O)NC(=O)c2cc(CCc3ccc4c(n3)NCCC4)c[nH]2)cc1F [Example 1, (S)-3-(3-Fluoro-4-methoxyphenyl)-3-(4-(2-(5,6,7,8-tetrahydro-1,8-naphthyridin-2-yl)ethyl)-1H-pyrrole-2-carboxamido)propanoic Acid] | 2.55 nM |  |  |  | 
COc1ncc(C(CC(=O)O)NC(=O)c2cc(CCc3ccc4c(n3)NCCC4)c[nH]2)cn1 (stereo not shown) [Example 14] | 7.17 nM |  | 4.69 nM | 5.68 nM | 3710 nM
O=C(O)CC(NC(=O)c1cc(CCc2ccc3c(n2)NCCC3)c[nH]1)c1cncnc1 (stereo not shown) [Example 15] | 11.9 nM |  |  |  | 
Cc1ncc([C@H](CC(=O)O)NC(=O)c2cc(CCCc3ccc4c(n3)NCCC4)c[nH]2)cn1 [Example 21] | 167 nM |  |  |  | 
COc1ccc([C@H](CC(=O)O)NC(=O)c2cc(CCc3ccc4c(n3)NCCC4)cn2C)cn1 [Example 8] | 22.5 nM |  |  |  | 
O=C(O)CC(NC(=O)c1cc(CCc2ccc3c(n2)NCCC3)c[nH]1)c1cnc2ccccc2n1 (stereo not shown) [Example 18] | 25.9 nM |  |  |  | 
COc1ccc([C@H](CC(=O)O)NC(=O)c2cc(CCc3ccc4c(n3)NCCC4)c(C)[nH]2)cc1F [Example 6] | 5.93 nM |  |  |  | 
COc1ccc([C@H](CC(=O)O)NC(=O)c2cc(CCc3ccc4c(n3)NCCC4)cn2C)cc1F [Example 4] | 22.1 nM |  |  |  | 
O=C(O)C[C@H](NC(=O)c1cc(CCc2ccc3c(n2)NCCC3)c[nH]1)c1ccc2c(c1)OCC2 [Example 17] | 4.63 nM | 3760 nM | 3.68 nM | 0.85 nM | 1220 nM
O=C(N[C@@H](CNC(=O)c1cc(CCc2ccc3c(n2)NCCC3)c[nH]1)C(=O)O)OCc1ccccc1 [Example 25, (S)-2-(((Benzyloxy)carbonyl)amino)-3-(4-(2-(5,6,7,8-tetrahydro-1,8-naphthyridin-2-yl)ethyl)-1H-pyrrole-2-carboxamido)propanoic Acid, TFA] | 0.34 nM | 12.6 nM | 1.5 nM | 0.16 nM | 
COc1ccc([C@H](CC(=O)O)NC(=O)c2cc(CCc3ccc4c(n3)NCCC4)c[nH]2)cn1 [Example 7] | 4 nM |  |  |  | 
Cc1cc(C)c(S(=O)(=O)N[C@@H](CNC(=O)c2cc(CCC3CCc4cccnc4N3)c[nH]2)C(=O)O)c(C)c1 (mixture of isomers) [Example 24, (2S)-3-(4-(2-(1,2,3,4-Tetrahydro-1,8-naphthyridin-2-yl)ethyl)-1H-pyrrole-2-carboxamido)-2-((2,4,6-trimethylphenyl)sulfonamido)propanoic Acid] | 0.61 nM | 11.9 nM | 2 nM | 0.23 nM | 3.03 nM
O=C(O)C[C@H](NC(=O)c1cc(CCc2ccc3c(n2)NCCC3)c[nH]1)c1cnc2ccccc2c1 [Example 16] | 1.1 nM |  | 3.44 nM | 1.73 nM | 360 nM
Cc1ncc(C(CC(=O)O)NC(=O)c2cc(CCc3ccc4c(n3)NCCC4)c[nH]2)cn1 (stereo not shown) [Example 13] | 6.7 nM |  | 4.59 nM | 3.84 nM | 4000 nM
COc1ccc([C@@H](CC(=O)O)NC(=O)c2cc(CCc3ccc4c(n3)NCCC4)c[nH]2)cc1F [Example 3] | 229 nM |  |  |  | 
CCn1cc(CCc2ccc3c(n2)NCCC3)cc1C(=O)N[C@@H](CC(=O)O)c1ccc(OC)c(F)c1 [Example 5] | 50.3 nM |  |  |  | 
COc1ccc([C@H](CC(=O)O)NC(=O)c2cc(CCC3CCc4cccnc4N3)c[nH]2)cc1F (mixture of isomers) [Example 2, (3S)-3-(3-Fluoro-4-methoxyphenyl)-3-(4-(2-(1,2,3,4-tetrahydro-1,8-naphthyridin-2-yl)ethyl)-1H-pyrrole-2-carboxamido)propanoic Acid] | 3.75 nM |  |  |  | 
CCn1cc(CCc2ccc3c(n2)NCCC3)cc1C(=O)N[C@@H](CC(=O)O)c1ccc(OC)nc1 [Example 9] | 46.8 nM |  |  |  | 
COc1ccc([C@H](CC(=O)O)NC(=O)c2cc(CCc3ccc4c(n3)NCCC4)c(C)[nH]2)cn1 [Example 10] | 3.96 nM | 415 nM | 2.49 nM | 10.4 nM | 
COc1ccc([C@H](CC(=O)O)NC(=O)c2cc(CCCc3ccc4c(n3)NCCC4)c[nH]2)cn1 [Example 20] | 22.4 nM |  |  |  | 
CC(C)(C)c1cc(Br)cc([C@H](CC(=O)O)NC(=O)c2cc(CCc3ccc4c(n3)NCCC4)c[nH]2)c1 [Example 12] | 0.63 nM |  |  |  | 
